Source: patent US5506237A, “Bicyclic nitrogen compounds” (Adir et Compagnie, priority 1993, dated 1996)

How the values were obtained:
[1] = molecular target: T1, prolyl-endopeptidase in rat cerebral cortex (Rattus norvegicus, UniProt O70196); assay: In vivo inhibition of prolyl-endopeptidase in rat cerebral cortex after IP administration; settings: 1 mg/kg IP, 30 minutes before preparation of the tissue extract
T1 sequence (O70196 1-710): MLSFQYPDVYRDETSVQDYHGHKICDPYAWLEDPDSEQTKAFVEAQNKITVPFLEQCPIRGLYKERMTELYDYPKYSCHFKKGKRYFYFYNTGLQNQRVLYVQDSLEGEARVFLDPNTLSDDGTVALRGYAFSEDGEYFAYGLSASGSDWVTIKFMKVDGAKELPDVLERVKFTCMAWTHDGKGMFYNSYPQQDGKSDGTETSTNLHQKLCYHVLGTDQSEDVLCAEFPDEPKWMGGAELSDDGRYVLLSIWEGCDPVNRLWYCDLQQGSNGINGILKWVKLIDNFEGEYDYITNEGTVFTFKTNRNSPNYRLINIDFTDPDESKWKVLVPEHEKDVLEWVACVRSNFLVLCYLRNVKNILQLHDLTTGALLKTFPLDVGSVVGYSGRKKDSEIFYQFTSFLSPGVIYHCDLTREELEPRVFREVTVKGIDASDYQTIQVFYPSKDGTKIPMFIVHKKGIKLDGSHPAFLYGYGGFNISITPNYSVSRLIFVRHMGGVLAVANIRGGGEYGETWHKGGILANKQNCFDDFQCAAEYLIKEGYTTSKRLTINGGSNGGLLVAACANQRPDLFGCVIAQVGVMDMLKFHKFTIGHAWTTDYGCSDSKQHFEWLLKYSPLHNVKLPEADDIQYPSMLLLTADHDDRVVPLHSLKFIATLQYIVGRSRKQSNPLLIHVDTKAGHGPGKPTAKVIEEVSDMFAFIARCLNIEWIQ

[2] = molecular target: T1, prolyl-endopeptidase in rat cerebral cortex; assay: Duration of action with respect to in vivo inhibition of prolyl-endopeptidase in rat cerebral cortex; settings: IP
[3] = molecular target: T1, prolyl-endopeptidase in rat cerebral cortex; assay: Oral bioavailability estimated from inhibiting effect after oral versus IP administration; assay type: in vivo; settings: inhibiting effect (%) after oral divided by that after IP administration, 30 or 60 minutes
Description: The oral bioavailability index (OBI) was determined by dividing the inhibiting effect (%) measured after oral administration by that measured after IP administration.

Prolyl-endopeptidase = assay: biochemical
[4] = molecular target: T1, prolyl-endopeptidase in rat cerebral cortex; assay: In vitro inhibition of prolyl-endopeptidase in rat cerebral cortex extract (substrate TRH-pNitroaniline); assay type: biochemical; settings: 37° C.

Chain of Prolyl-endopeptidase (P27028 21-705): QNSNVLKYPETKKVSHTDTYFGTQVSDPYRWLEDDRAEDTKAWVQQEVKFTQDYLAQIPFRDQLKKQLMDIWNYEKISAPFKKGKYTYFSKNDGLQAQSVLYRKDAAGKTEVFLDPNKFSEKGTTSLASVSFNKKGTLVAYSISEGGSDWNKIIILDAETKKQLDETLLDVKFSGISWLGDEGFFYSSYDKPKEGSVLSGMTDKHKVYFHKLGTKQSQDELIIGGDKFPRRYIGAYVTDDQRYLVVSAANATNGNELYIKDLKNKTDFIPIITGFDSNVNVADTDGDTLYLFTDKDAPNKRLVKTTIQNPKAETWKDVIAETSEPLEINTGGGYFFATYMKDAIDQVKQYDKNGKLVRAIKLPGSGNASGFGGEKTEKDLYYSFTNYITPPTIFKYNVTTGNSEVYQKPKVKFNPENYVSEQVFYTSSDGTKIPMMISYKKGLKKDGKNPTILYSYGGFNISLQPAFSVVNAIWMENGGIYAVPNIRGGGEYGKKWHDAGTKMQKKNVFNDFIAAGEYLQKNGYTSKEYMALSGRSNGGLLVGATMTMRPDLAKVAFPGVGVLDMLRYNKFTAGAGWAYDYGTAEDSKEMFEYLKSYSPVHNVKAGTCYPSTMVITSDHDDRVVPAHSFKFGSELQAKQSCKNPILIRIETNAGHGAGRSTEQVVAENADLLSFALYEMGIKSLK

Compound `O=C([C@@H]1C[C@@H]2CCCC[C@@H]2N1C(=O)C1CC1Cc1ccccc1)N1CCCC1` (single isomer, unassigned) [Example 14] has an inhibition at 1 mg/kg [1] of 41%.
For `O=C([C@@H]1C[C@@H]2CCCC[C@@H]2N1C(=O)[C@@H]1C[C@H]1c1ccc(F)cc1)N1CCCC1` [Example 1], the “t1/2 (time for which the inhibiting effect is equal to 50 % of the maximum effect measured at 30 minutes)” value ([2]; 1 mg/kg) was 7 h, the “OBI (oral bioavailability index)” value ([3]; 1 mg/kg) was 0.90 and the inhibition at 1 mg/kg [1] was 54%. For the same compound, the IC50 (Prolyl-endopeptidase) was 14 nM.
With `O=C([C@@H]1C2CCC(CC2)N1C(=O)[C@@H]1C[C@H]1c1ccc(F)cc1)N1CCCC1` [Example 2, (3S)-2-{(1R,2R)-[2-(4-Fluorophenyl)-1-cyclopropyl]carbonyl}-3-[(pyrrolidin-1-yl)carbonyl]-2-azabicyclo[2.2.2]octane] the “t1/2 (time for which the inhibiting effect is equal to 50 % of the maximum effect measured at 30 minutes)” value ([2]; 1 mg/kg) was 7 h, the inhibition at 1 mg/kg [1] was 42% and the IC50 (Prolyl-endopeptidase) was 40 nM.
With `O=C([C@@H]1C[C@@H]2CCCC[C@@H]2N1C(=O)[C@@H]1C[C@H]1c1cccs1)N1CCCC1` [Example 3, (2S,3aS,7aS)-1-{(1R,2R)-[2-(2-Thienyl)-1-cyclopropyl]carbonyl}-2-[(pyrrolidin-1-yl)carbonyl]perhydroindole] the inhibition at 1 mg/kg [1] was 59%, the IC50 (Prolyl-endopeptidase) was 14 nM and the IC50 [4] was 1.4 nM.
`O=C([C@@H]1C[C@@H]2CCCC[C@@H]2N1C(=O)[C@@H]1C[C@H]1c1cccc(C(F)(F)F)c1)N1CCCC1` [Example 5, (2S,3aS,7aS)-1-{(1R,2R)-[2-(3-Trifluoromethylphenyl)-1cyclopropyl]carbonyl}-2-[(pyrrolidin-1-yl)carbonyl]perhydroindole] gave an inhibition at 1 mg/kg [1] of 58% and an IC50 [4] of 1 nM.
In the case of `O=C([C@@H]1C2CCC(CC2)N1C(=O)[C@@H]1C[C@H]1c1cccc(C(F)(F)F)c1)N1CCCC1` [Example 6, (3S)-2-{(1R,2R)-[2-(3-Trifluoromethylphenyl)-1-cyclopropyl]carbonyl}-3-[(pyrrolidin-1-yl)carbonyl]-2-azabicyclo[2.2.2]octane], the inhibition at 1 mg/kg [1] is reported as 49% and the IC50 (Prolyl-endopeptidase) is reported as 3 nM.
In the case of `O=C[C@@H]1CCCN1C(=O)CCC(=O)NCc1ccc(Cl)cc1` [ONO, (S)-1-[N-4-chlorobenzylsuccinamoyl] pyrrolidine-2-carbaldehyde, reference compound], the “t1/2 (time for which the inhibiting effect is equal to 50 % of the maximum effect measured at 30 minutes)” value ([2]; 30 mg/kg) is reported as 1 h.
For `O=C([C@@H]1CSCN1C(=O)CCCc1ccccc1)N1CCCC1` [Zeria, N-(4-phenylbutanoyl)-L-thiaprolylpyrrolidineimide, reference compound], the “t1/2 (time for which the inhibiting effect is equal to 50 % of the maximum effect measured at 30 minutes)” value ([2]; 30 mg/kg) was 1 h and the “OBI (oral bioavailability index)” value ([3]; 30 mg/kg) was 0.30.
